Data from patent US20240166596A1, “SULFAMOYL BENZENE DERIVATIVES AND USES THEREOF” (AphioTx Inc., priority 2021, published 2024).

Target: T1, rPanx1 (Rattus norvegicus Pannexin-1) expressed in 293T cells (Rattus norvegicus, UniProt P60570)
T1 construct: expressed in transfected cells; host or cells: Human embryonic kidney-293T cells (ATCC), transient Lipofectamine 2000 transfection
Test: Whole-cell patch-clamp of Panx1 currents in transfected 293T cells
Assay type: cell-based, Homo sapiens
Conditions: voltage ramp -80 to +80 mV, various doses
Procedure: To further compare the effects of probenecid, Compounds 1 and 5 on Pannexin-1 channels […] Panx-1 was expressed in embryonic kidney-293T cells (293T) and channel activity was assessed at various doses of each compound.
Rattus norvegicus Pannexin-1 (rPanx1) complementary DNA (cDNA) was cloned between BamHI and SalI sites in a pRK5 expression vector (pRK5-rPanx1). Enhanced green fluorescent protein (EGFP) plasmid (pEGFP-C1) was commercially purchased (addgene).
Human embryonic kidney-293T cells (293T) were purchased from ATCC and routinely maintained in the laboratory. Adherent 293T cells were grown in Dulbecco's modified Eagle's medium (Thermo Fisher) supplemented with 10% fetal bovine serum (Thermo Fisher) and 1% penicillin-streptomycin (10,000 U/mL; Thermo Fisher) at 37° C. in a 5% CO2 humidified growth incubator. 293T cells between the passages 6-20 were used for experiments. For patch-clamp recordings, 293T cells reaching 40-60% confluency on 35 mm culture plates were transiently transfected using Lipofectamine 2000 (Thermo Fisher) 36-48 hours before experiments, using the manufacturer's protocol. 293T cells were transfected with 2.5 μg pRK5-rPanx1 and 0.5 μg pEGFP-C1 cDNAs at a mixed ratio of 5:1 to identify positively transfected cells.
On the day of experiments, transiently transfected 293T cells overexpressing rPanx1 and EGFP cDNAs were seeded onto poly-d-lysine coated glass coverslips at least 2 hours before recordings. […] Data was acquired using Clampex (v.10) software and an Axon Digidata 1550A digitizer (Axon Instruments) at 10 kHz, with currents analyzed offline in Clampfit software (v.10.7). […]
293T cells were voltage clamped at −60 mV in whole-cell configuration and exposed to a 300 ms voltage ramp (−80 to +80 mV) before stepping back to −60 mV to record rPanx1 voltage-sensitive currents. Baseline currents were first measured in extracellular solution before perfusion of drug compounds in incrementally increasing concentrations. […]

T1 sequence (P60570 whole entry): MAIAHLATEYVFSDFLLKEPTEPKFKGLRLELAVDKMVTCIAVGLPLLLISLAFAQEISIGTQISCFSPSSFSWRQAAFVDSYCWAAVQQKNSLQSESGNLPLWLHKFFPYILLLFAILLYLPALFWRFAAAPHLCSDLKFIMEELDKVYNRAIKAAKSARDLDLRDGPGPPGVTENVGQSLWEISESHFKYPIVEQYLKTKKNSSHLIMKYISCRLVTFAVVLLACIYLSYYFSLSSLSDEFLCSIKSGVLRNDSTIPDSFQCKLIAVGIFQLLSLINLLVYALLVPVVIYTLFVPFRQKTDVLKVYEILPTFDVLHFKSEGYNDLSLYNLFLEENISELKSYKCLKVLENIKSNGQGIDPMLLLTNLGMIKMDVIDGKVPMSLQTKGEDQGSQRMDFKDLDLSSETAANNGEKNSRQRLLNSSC

Panx1 inhibitory potency relative to Probenecid (patch-clamp): more potent
Structure (SMILES): CCCN(CCC)S(=O)(=O)c1ccc(C(O)(C(F)(F)F)C(F)(F)F)cc1 [Compound 1, 4-(1,1,1,3,3,3-hexafluoro-2-hydroxypropan-2-yl)-N,N-dipropylbenzenesulfonamide]
